Measured values published in PubChem BioAssay (NCI).
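Following 48 hours of exposure in 96-well plates, responses at five concentrations were used to interpolate endpoints linearly. The concentration for full growth arrest is given as TGI.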

Columns and labels:
Test in all cases: inhibition of tumour cell growth, NCI panel, 48 h
[1] = tested on: OVCAR-4 ovarian
[2] = tested on: 786-0 renal
[3] = tested on: SR leukemia
[4] = tested on: CAKI-1 renal
[5] = tested on: SF-539 CNS
[6] = tested on: DMS 273 small cell lung
[7] = tested on: KM20L2 colon
[8] = tested on: K-562 leukemia
[9] = tested on: NCI-H522 lung
[10] = tested on: UO-31 renal
[11] = tested on: MALME-3M melanoma
[12] = tested on: SK-MEL-2 melanoma
[13] = tested on: SNB-75 CNS
[14] = tested on: SW-620 colon
[15] = tested on: HCC-2998 colon
[16] = tested on: SK-MEL-5 melanoma
[17] = tested on: DLD-1 colon
[18] = tested on: SF-268 CNS
[19] = tested on: LOX IMVI melanoma
[20] = tested on: IGROV1 ovarian
[21] = tested on: OVCAR-3 ovarian
[22] = tested on: RPMI-8226 leukemia
[23] = tested on: HOP-62 NSCLC
[24] = tested on: TK-10 renal
[25] = tested on: NCI-H460 lung
[26] = tested on: ACHN renal
[27] = tested on: SNB-19 CNS
[28] = tested on: U251 CNS
[29] = tested on: COLO 205 colon
[30] = tested on: M14 melanoma
[31] = tested on: MOLT-4 leukemia
[32] = tested on: HCT-15 colon
[33] = tested on: M19-MEL melanoma
[34] = tested on: NCI-H226 lung
[35] = tested on: SK-MEL-28 melanoma
[36] = tested on: RXF 393 renal
[37] = tested on: NCI-H23 lung
[38] = tested on: RXF-631 renal
[39] = tested on: SF-295 CNS
[40] = tested on: A549 NSCLC
[41] = tested on: DMS 114 small cell lung
[42] = tested on: OVCAR-8 ovarian
[43] = tested on: UACC-62 melanoma
[44] = tested on: SN12C renal
[45] = tested on: HCT-116 colon
[46] = tested on: LXFL 529 NSCLC
[47] = tested on: EKVX NSCLC
[48] = tested on: SK-OV-3 ovarian
[49] = tested on: A498 renal
[50] = tested on: OVCAR-5 ovarian
[51] = tested on: CCRF-CEM leukemia
[52] = tested on: HL-60(TB) leukemia
[53] = tested on: HOP-18 NSCLC
[54] = tested on: UACC-257 melanoma
[55] = tested on: XF 498 CNS
[56] = tested on: HOP-92 NSCLC
[57] = tested on: KM12 colon
[58] = tested on: HT29 colon
[59] = tested on: SNB-78 CNS

Cc1ccc(CCNC(=S)SCC(NC(=O)CCC(N)C(=O)O)C(=O)NCC(=O)O)cc1 (centres undefined)
TGI [1]: 7.41 µM
TGI [2]: 1.6 µM
TGI [3]: 5.91 µM
TGI [4]: 3.44 µM
TGI [5]: 2.97 µM
TGI [6]: 1.68 µM
TGI [7]: 5.1 µM
TGI [8]: 2.5 µM
TGI [9]: 1.45 µM
TGI [10]: 2.33 µM
TGI [11]: 4.47 µM
TGI [12]: 1.45 µM
TGI [13]: 3.44 µM
TGI [14]: 3.01 µM
TGI [15]: 3.54 µM
TGI [16]: 3.78 µM
TGI [17]: 2.63 µM
TGI [18]: 8.29 µM
TGI [19]: 1.55 µM
TGI [20]: 4.77 µM
TGI [21]: 5.27 µM
TGI [22]: 1.43 µM
TGI [23]: 8.08 µM
TGI [24]: 9.95 µM
TGI [25]: 8.09 µM
TGI [26]: 4.17 µM
TGI [27]: 4.98 µM
TGI [28]: 4.06 µM
TGI [29]: 6.63 µM
TGI [30]: 2.56 µM
TGI [31]: 3.93 µM
TGI [32]: 3.72 µM
TGI [33]: 4.07 µM
TGI [34]: 4.47 µM
TGI [35]: 7.63 µM
TGI [36]: 2.32 µM
TGI [37]: 9.99 µM
TGI [38]: 5.62 µM
TGI [39]: 8.69 µM
TGI [40]: 13.4 µM
TGI [41]: 2.72 µM
TGI [42]: 4.65 µM
TGI [43]: 3.08 µM
TGI [44]: 3.84 µM
TGI [45]: 6.26 µM
TGI [46]: 2.12 µM
TGI [47]: 18.6 µM
TGI [48]: 19.2 µM
TGI [49]: 6.25 µM
TGI [50]: 6.11 µM
TGI [51]: 2.18 µM
TGI [52]: 2.6 µM
TGI [53]: 7.76 µM
TGI [54]: 4.47 µM
TGI [55]: 3.15 µM
TGI [56]: 2.8 µM
TGI [57]: 2.68 µM
TGI [58]: 7.01 µM

CN1C(=N\S(=O)(=O)c2ccc(Cl)cc2)/C(=N/N=P(c2ccccc2)(c2ccccc2)c2ccccc2)c2ccccc21
TGI [1]: > 100 µM
TGI [3]: > 100 µM
TGI [4]: > 100 µM
TGI [5]: > 100 µM
TGI [6]: > 100 µM
TGI [7]: > 100 µM
TGI [8]: > 100 µM
TGI [9]: > 100 µM
TGI [10]: > 100 µM
TGI [11]: > 100 µM
TGI [12]: > 100 µM
TGI [13]: > 100 µM
TGI [14]: > 100 µM
TGI [15]: > 100 µM
TGI [16]: > 100 µM
TGI [59]: > 100 µM
TGI [17]: > 100 µM
TGI [18]: > 100 µM
TGI [20]: > 100 µM
TGI [21]: > 100 µM
TGI [24]: > 100 µM
TGI [25]: > 100 µM
TGI [26]: > 100 µM
TGI [27]: > 100 µM
TGI [28]: > 100 µM
TGI [29]: > 100 µM
TGI [30]: > 100 µM
TGI [31]: > 100 µM
TGI [32]: > 100 µM
TGI [33]: > 100 µM
TGI [34]: > 100 µM
TGI [35]: > 100 µM
TGI [36]: > 100 µM
TGI [37]: > 100 µM
TGI [38]: > 100 µM
TGI [39]: > 100 µM
TGI [40]: > 100 µM
TGI [42]: > 100 µM
TGI [43]: > 100 µM
TGI [44]: > 100 µM
TGI [45]: > 100 µM
TGI [46]: > 100 µM
TGI [47]: > 100 µM
TGI [48]: > 100 µM
TGI [49]: > 100 µM
TGI [50]: > 100 µM
TGI [51]: > 100 µM
TGI [54]: > 100 µM
TGI [55]: > 100 µM
TGI [57]: > 100 µM
TGI [58]: > 100 µM
